Experimental findings from patent US20060148799A1, “Substituted p-phenyl carbamates” (Novo Nordisk A/S, priority 2003, published 2006) are described below.

The test deals with T1, Hormone-sensitive lipase (HSL) (Homo sapiens, UniProt Q05469).
T1 construct: made in house
T1 sequence (Q05469 1-1076): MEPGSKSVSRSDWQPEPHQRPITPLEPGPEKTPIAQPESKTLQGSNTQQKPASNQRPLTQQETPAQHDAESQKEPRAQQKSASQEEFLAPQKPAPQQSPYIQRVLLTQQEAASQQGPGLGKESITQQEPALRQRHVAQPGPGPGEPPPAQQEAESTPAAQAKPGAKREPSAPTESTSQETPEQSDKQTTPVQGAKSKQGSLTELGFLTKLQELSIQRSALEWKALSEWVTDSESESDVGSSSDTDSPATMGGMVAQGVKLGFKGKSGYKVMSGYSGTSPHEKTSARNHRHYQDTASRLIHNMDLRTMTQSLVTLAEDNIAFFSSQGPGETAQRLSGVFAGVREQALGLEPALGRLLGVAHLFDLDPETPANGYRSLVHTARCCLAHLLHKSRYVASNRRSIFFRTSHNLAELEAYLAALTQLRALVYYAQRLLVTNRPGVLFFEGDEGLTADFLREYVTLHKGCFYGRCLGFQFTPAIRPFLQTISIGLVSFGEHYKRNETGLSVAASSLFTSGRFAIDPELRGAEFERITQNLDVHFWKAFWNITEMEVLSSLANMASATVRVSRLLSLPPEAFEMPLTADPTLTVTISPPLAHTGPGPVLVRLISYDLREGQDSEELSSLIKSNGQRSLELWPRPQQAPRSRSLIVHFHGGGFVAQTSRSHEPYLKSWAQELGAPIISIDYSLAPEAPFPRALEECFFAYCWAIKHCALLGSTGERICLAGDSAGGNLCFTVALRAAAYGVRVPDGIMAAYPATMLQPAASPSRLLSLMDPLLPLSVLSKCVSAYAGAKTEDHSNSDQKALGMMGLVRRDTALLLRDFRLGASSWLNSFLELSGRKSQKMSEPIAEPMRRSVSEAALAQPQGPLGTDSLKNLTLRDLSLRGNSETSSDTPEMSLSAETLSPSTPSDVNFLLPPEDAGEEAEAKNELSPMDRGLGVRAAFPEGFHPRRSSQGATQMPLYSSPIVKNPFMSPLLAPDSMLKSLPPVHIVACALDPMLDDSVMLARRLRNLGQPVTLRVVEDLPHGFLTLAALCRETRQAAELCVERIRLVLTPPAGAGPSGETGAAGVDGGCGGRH
The experiment in a line: 3190.1: percent inhibition of hormone sensitive lipase at 10 μM (fluorochrome-labeled triacylglyceride emulsion). Type of test: biochemical. The note with it: % activity relative to non-inhibited sample; 10 μM sample concentration; 30 min pre-incubation at 25° C., 120 min incubation at 37° C.; read-out: 3190.1 HSL_FL % ACTIVITY (%). The source says: Materials. The Hormone-sensitive lipase was provided by Dr. Cecilia Holm, from Lund University Sweden or produced and purified by Novo Nordisk (NN) using the reagents and protocols used by Dr. Holm. The substrates used are: ^3H-labeled triolein (TO) from Amersham, Buckinghamshire, U.K. cat No. TRA191; 5-20 Ci/mmol dissolved in toluene, triolein (Sigma, Cat. No. T-1740), fluorochrome-labeled triacylglyceride (cis-octadec-9-enoic acid 2-[12-(7-nitrobenzo[1,2,5]oxadiazol-4-ylamino)dodecanoyloxy]-1-cis-octadec-9-enoyloxymethyl-ethyl ester) prepared by Novo Nordisk (NN) by conventional methods, and 1,3-(di[^3H]-stearin), 2-(PEG-Biotin)glycerol prepared in collaboration with Amersham Pharmacia Biotech, UK and described in WO 01/073442. Phosphatidyl choline (PC) and phosphatidyl inositol (PI) are from Sigma (St Luis Mo. cat. Nos. P-3556 and P-5954 respectively). All other reagents are of commercial grade and obtained from various commercial sources.
3190.1: Assay for determination of percent inhibition of hormone sensitive lipase by compound at 10 μM sample concentration.
A lipid emulsion with fluorochrome-labeled triacylglyceride and phospholipid is used as substrate with a standard concentration of highly purified HSL (12 μg/mL initial concentration corresponding to 600 ng/mL final concentration). BSA is added as product acceptor. The transfer of the fluorochrome from the lipid phase to the water (BSA) phase changes the fluorescent properties of the fluorochrome. The changes can be monitored on a fluorimeter with an excitation wavelength of 450 nm and an emission wavelength of 545 nm.
Compound and HSL (20 μL compound, 10 μL enzyme and 70 μL PED-BSA buffer) is pre-incubated for 30 min at 25° C. before addition of substrate (100 μL). Amount of formed product is measured after 120 min incubation at 37° C.
Results are given as percent activity relative to a non-inhibited sample (no compound).
As for `CN(C(=O)Oc1ccc(NC(=O)c2ccc(CN3CCCCC3)cc2)cc1)c1ccccc1` [Example 1, Methyl-phenyl-carbamic acid 4-(4-piperidin-1-ylmethyl-benzoylamino)-phenyl ester], the activity at 10 µM stood at 4%.

Consider `CN(C(=O)Oc1ccc(NC(=O)c2ccc(CN3CCOCC3)cc2)cc1)c1ccccc1` [Example 2, Methyl-phenyl-carbamic acid 4-(4-morpholin-4-ylmethyl-benzoylamino)-phenyl ester], for which the activity at 10 µM is 4%.

On to `CC1CCN(Cc2ccc(C(=O)Nc3ccc(OC(=O)N(C)c4ccccc4)cc3)cc2)CC1` [Example 3, Methyl-phenyl-carbamic acid 4-[4-(4-methyl-piperidin-1-ylmethyl)-benzoylamino]-phenyl ester], for which the activity at 10 µM is 2%.
